*1 amine or outer side, *2 acyl side, *3 side chain or, on linkers, in order; H or OH if unused. Primed or numbered codes have the meaning given here. Where no end group is shown, it is not given here. Side-chain parts run from the residue outwards. [ ]: non-standard residue; d: D form. The star is where a group is joined. C20 diacid = O=C(O)CCCCCCCCCCCCCCCCCCC(=O)*; γGlu = O=C(O)[C@H](CCC(=O)[*:2])N[*:1]; PEG2′ = not defined here; Aib = CC(C)(N)C(=O)O
Tests used:
db/db diabetic mice [1] = test: Treatment of 12-week-old db/db diabetic mice: blood glucose, OGTT, ITT, ALT/AST, diabetic nephropathy indices; format: in vivo; conditions: for weekly blood glucose (hypoglycemic effect): FIG. 4A, blood glucose at normal levels at week 1; for weekly blood glucose (hypoglycemic effect) / improving oral glucose tolerance (OGTT) / improving insulin resistance (ITT) / ALT and AST in serum (hepatoprotective function): 120 μg/kg s.c. daily; for improving oral glucose tolerance (OGTT): FIG. 4B, week 4; for improving insulin resistance (ITT): FIG. 4C, week 5; for ALT and AST in serum (hepatoprotective function): FIG. 4D; for H&E staining of kidneys: glomerular adhesion, ameliorative and therapeutic effects: FIG. 5B; for H&E staining of kidneys: glomerular adhesion, ameliorative and therapeutic effects / PAS staining of kidneys: ameliorative effects on glomerular mesangial region / collagen content (Sirius red, FN and α-SMA staining of kidneys): after 8 weeks; for H&E staining of kidneys: glomerular adhesion, ameliorative and therapeutic effects / collagen content (Sirius red, FN and α-SMA staining of kidneys): compared to semaglutide, SAR425899 and MED C18-acid groups; for PAS staining of kidneys: ameliorative effects on glomerular mesangial region: FIG. 5C; for collagen content (Sirius red, FN and α-SMA staining of kidneys): FIGS. 5D to 5F
Protocol: Normal mice born in the same litter; DC group: db/db mice control group). Blood glucose and body weight were measured on alternate days after daily administration of the medicament, and water intake and food intake were measured once a week. OGTT was measured at week 4, insulin tolerance (ITT) was measured at week 5, metabolism of mice was examined using mouse metabolic cages at weeks 6-7, and various serological and pathological indices were taken at week 8.
Type 2-diabetes mice were characterized by obesity, insulin resistance, hyperglycemia, dyslipidemia and hepatic fat vacuole-like degeneration.
After 6 weeks of medical treatment, the mice was collected for urine using metabolic cages, and the protein content in the urine was detected using relevant kits. After 7 weeks of medical treatment, the material was taken and blood was used to detect serological indicators such as blood creatinine and urea nitrogen.

FN protein (fibronectin) = test: Western blot of FN protein in high glucose-induced in vitro renal fibrosis cell model; format: cell-based, rat; conditions: 10 μM; 30 mmol/L glucose; 48 h; mesangial and renal epithelial cells
Source text: Hyperglycemia and increased production of glycosylation end products will cause morphological changes such as proliferation and hypertrophy of glomerular mesangial cells, increase in extracellular matrix (ECM) and mesangial expansion, which will eventually lead to the loss of its physiological function. […] Therefore, this example used high glucose to induce MCS mesangial cells and NRK renal epithelial cells to construct an in vitro renal fibrosis cell model for screening medicaments useful for the treatment of diabetic nephropathy. The renal mesangial cell strain GMC and glomerular epithelial cells mTEC used in this example were both cells kept in the applicant's laboratory (both were extracted from rat renal primary cells) and cultured in low sugar medium containing 10% fetal bovine serum. The cells were starved with serum-free culture medium for 24 h when grew to 70% confluence. The cells were divided into the following 9 groups by adjusting the glucose concentration as follows: […]

C57BL/6J mice = test: Oral glucose tolerance (OGTT), repeated glucose loads followed to 24 h after one s.c. dose; format: in vivo; conditions: 100 μg/kg subcutaneously; for long-acting hypoglycemic effects compared to semaglutide: four OGTT curves (0-22 h)
Protocol: Eight-week-old male C57BL/6J mice (Model Animal Research Center, Nanjing University) were randomly grouped according to similar blood glucose (assessed by blood samples obtained from the tail tip), with six mice in each group. […] The initial blood samples (fasted blood glucose levels) were obtained after about 4 h. Subsequently, an oral dose of glucose (2 g/kg) was administered and the animals were placed back in their holding cages (t=0). […] The oral dose of glucose was then repeated at 8 h of administration, 12 h of administration and […], and blood glucose changes were detected and followed until 24 hours. The data were processed using the software GraphPadPrism to make a line graph of blood glucose changes, and the area under the curve was calculated to obtain an AUC graph, and the results are shown in FIG. 1.

db/db diabetic mice [2] = test: Dose determination in 8-week-old db/db diabetic mice: blood glucose and body weight; format: in vivo
Protocol: The db/db mice diabetic model (purchased from Nanjing University-Nanjing Institute of Biomedical Research, about 8 weeks, and blood glucose and body weight were measured to ensure the smooth subsequent experiments) was obtained, and the model mice were randomly divided into 12 groups (including polypeptide compounds 3, 8, 13, 15, semaglutide and physiological saline groups), with 6 mice in each group and no difference in basal body weight and blood glucose. Each group was injected subcutaneously with compound 3 (80 and 120 μg/kg, 2 groups), compound 8 (80 and 120 μg/kg, 2 groups), compound 13 (80 and 120 μg/kg, 2 groups), compound 15 (80 and 120 μg/kg, 2 groups), semaglutide (80 and 120 μg/kg, 2 groups) and physiological saline (DN group: normal mice born in the same litter; DC group: db/db mice control group) every day or every other day.
Blood glucose and body weight of mice were measured after daily administration and 6 h fasting on alternate days.

Substance: His-(D-Ser)-Gln-Gly-Thr-Phe-Thr-Ser-Asp-Leu-Ser-Lys-Gln-Lys(CO(CH2)14CH3)-Glu-Ser-Lys-Ala-Ala-Gln-Asp-Phe-Ile-Glu-Trp-Leu-Lys-Ala-Gly-Gly-Pro-Ser-Ser-Gly-Ala-Pro-Pro-Pro-Ser-NH2 (HXQGTFTSDLSKQKESKAAQDFIEWLKAGGPSSGAPPPS; D-Ser; palmitoyl lysine; C-terminal amide; SAR425899; (2)..(2) X=D-Ser; (14)..(14) A side chain of Lys is linked to -CO(CH2)14CH3) [compound reported in the prior art, synthesized by the applicant, reference compound]
- weekly blood glucose (hypoglycemic effect) (db/db diabetic mice [1]): significant hypoglycemic effects

Substance: His-(D-Ser)-Gln-Gly-Thr-Phe-Thr-Ser-Asp-Lys(Gly-Gly-Ser-Gly-Ser-Gly-γGlu-CO(CH2)18-COOH)-Ser-Lys-Tyr-Leu-Glu-Aib-Lys-Ala-Ala-Gln-Asp-Phe-Val-Glu-Trp-Leu-Lys-Ala-Gly-Gly-Pro-Ser-Ser-Gly-Ala-Pro-Pro-Pro-Ser-NH2 (HXQGTFTSDKSKYLEXKAAQDFVEWLKAGGPSSGAPPPS; D-Ser, Aib; γGlu-C20 diacid lipidation; C-terminal amide; (2)..(2) X=D-Ser; (10)..(10) A side chain of Lys is linked to -Gly-Gly-Ser-Gly-Ser-Gly-AGlu-CO(CH2)18-COOH; (16)..(16) X=Aib) [Compound 14]
- FN protein expression (Western blot) (FN protein (fibronectin)): inhibited FN expression more significantly
- long-acting hypoglycemic effects compared to semaglutide (C57BL/6J mice): superior and significant long-acting hypoglycemic effects
- weekly blood glucose (hypoglycemic effect) (db/db diabetic mice [1]): significant hypoglycemic effects
- improving oral glucose tolerance (OGTT) (db/db diabetic mice [1]): performed more excellent
- improving insulin resistance (ITT) (db/db diabetic mice [1]): performed more excellent
- ALT and AST in serum (hepatoprotective function) (db/db diabetic mice [1]): more excellent hepatoprotective functions
- H&E staining of kidneys: glomerular adhesion, ameliorative and therapeutic effects (db/db diabetic mice [1]): more significant
- PAS staining of kidneys: ameliorative effects on glomerular mesangial region (db/db diabetic mice [1]): more significant
- collagen content (Sirius red, FN and α-SMA staining of kidneys) (db/db diabetic mice [1]): improved more significantly

Substance: His-(D-Ser)-Gln-Gly-Thr-Phe-Thr-Ser-Asp-Lys(PEG2-PEG2-CO(CH2)18CO2H)-Ser-Lys-Tyr-Leu-Glu-Aib-Lys-Ala-Ala-Gln-Asp-Phe-Val-Glu-Trp-Leu-Lys-Ala-Gly-Gly-Pro-Ser-Ser-Gly-Ala-Pro-Pro-Pro-Ser-NH2 (H[dS]QGTFTSDK([PEG2′-PEG2′-C20 diacid])SKYLE[Aib]KAAQDFVEWLKAGGPSSGAPPPS-NH2) [Compound 2]
- long-acting hypoglycemic effects compared to semaglutide (C57BL/6J mice): superior and significant long-acting hypoglycemic effects

Substance: His-(D-Ser)-Gln-Gly-Thr-Phe-Thr-Ser-Asp-Tyr-Ser-Lys-Lys(PEG2-PEG2-γGlu-(CH2)17COOH)-Leu-Asp-Ser-Glu-Arg-Ala-Arg-Asp-Phe-Val-Ala-Trp-Leu-Val-Ala-Gly-Gly-NH2 (H[dS]QGTFTSDYSKKLDSERARDFVAWLVAGG-NH2; not fully specified (residue 13); printed as His-(D-Ser)-Gln-Gly-Thr-Phe-Thr-Ser-Asp-Tyr-Ser-Lys-Lys(PEG2-PEG2-γGlu-(CH2)17COOH)-Leu-Asp-Ser-Glu-Arg-Ala-Arg-Asp-Phe-Val-Ala-Trp-Leu-Val-Ala-Gly-Gly-NH2) [MED C18-acid, compound reported in the prior art, synthesized by the applicant, reference compound]
- weekly blood glucose (hypoglycemic effect) (db/db diabetic mice [1]): significant hypoglycemic effects

Substance: His-Aib-Gln-Gly-Thr-Phe-Thr-Ser-Asp-Lys(Gly-Gly-Ser-Gly-Ser-Gly-γGlu-CO(CH2)18-COOH)-Ser-Lys-Tyr-Leu-Asp-Glu-Arg-Ala-Ala-Gln-Asp-Phe-Iva-Gln-Trp-Leu-Leu-Asp-Gly-Gly-Pro-Ser-Ser-Gly-Aib-Pro-Pro-Pro-Ser-NH2 (HXQGTFTSDKSKYLDERAAQDFXQWLLDGGPSSGXPPPS; Aib, Iva; γGlu-C20 diacid lipidation; C-terminal amide; (2)..(2) X=Aib; (10)..(10) A side chain of Lys is linked to -Gly-Gly-Ser-Gly-Ser-Gly-AGlu-CO(CH2)18-COOH; (23)..(23) X=Isovaline; (35)..(35) X=Aib) [Compound 16]
- weekly blood glucose (hypoglycemic effect) (db/db diabetic mice [1]): significant hypoglycemic effects
- improving oral glucose tolerance (OGTT) (db/db diabetic mice [1]): performed more excellent
- improving insulin resistance (ITT) (db/db diabetic mice [1]): performed more excellent
- ALT and AST in serum (hepatoprotective function) (db/db diabetic mice [1]): more excellent hepatoprotective functions
- H&E staining of kidneys: glomerular adhesion, ameliorative and therapeutic effects (db/db diabetic mice [1]): more significant
- PAS staining of kidneys: ameliorative effects on glomerular mesangial region (db/db diabetic mice [1]): more significant
- collagen content (Sirius red, FN and α-SMA staining of kidneys) (db/db diabetic mice [1]): improved more significantly

Substance: His-Aib-Gln-Gly-Thr-Phe-Thr-Ser-Asp-Lys(PEG2-PEG2-γGlu-CO(CH2)18CO2H)-Ser-Lys-Tyr-Leu-Glu-Aib-Lys-Ala-Ala-Gln-Asp-Phe-Val-Glu-Trp-Leu-Lys-Ala-Gly-Gly-Pro-Ser-Ser-Gly-Ala-Pro-Pro-Pro-Ser-NH2 (H[Aib]QGTFTSDK([PEG2′-PEG2′-γGlu-C20 diacid])SKYLE[Aib]KAAQDFVEWLKAGGPSSGAPPPS-NH2) [Compound 1]
- long-acting hypoglycemic effects compared to semaglutide (C57BL/6J mice): superior and significant long-acting hypoglycemic effects

Substance: Semaglutide [reference compound]
- blood glucose (glucose-lowering effect) (db/db diabetic mice [2]; FIG. 3A, daily s.c., 120 μg/kg, vs saline DC group): better hypoglycemic effect, after which it was maintained at a more stable normoglycemic level, but its hypoglycemic effect was not significant
- blood glucose (hypoglycemic effect) (db/db diabetic mice [2]; FIG. 3B, every other day s.c., 80 μg/kg): the hypoglycemic effect was not significant
- blood glucose (hypoglycemic effect) (db/db diabetic mice [2]; FIG. 3B, every other day s.c., 120 μg/kg): the hypoglycemic effect was not significant
- subsequent blood glucose course (long-lasting effect) (db/db diabetic mice [2]; FIG. 3B, every other day s.c., 120 μg/kg, from day 3 / after days 3-5): rebounded on day 3, and its long-lasting effect was not enough
- AUC / improvement in glucose tolerance in all four OGTT curves (C57BL/6J mice; four OGTT curve periods (0-22 h), compared to control PBS): significantly reduced (P<0.05)
- weekly blood glucose (hypoglycemic effect) (db/db diabetic mice [1]): significant hypoglycemic effects
